Marks after values point to notes of the source that are not given here.
What was measured:
[1] = system: sCD40L; assay: Serum sCD40L by double antibody sandwich ELISA in apo E−/− mice; format: in vivo, mouse; conditions: 15 weeks
Procedure: (§1) 80 healthy clean grade C57BL/6J apo E^−/^− mice of 10 weeks old, wherein male and female mice were fifty-fifty, weight 20-22 g, were breed and divided into individual cage in sterile laminar flow rack, allowing mice to freely drink water and get food. Mice were raised for 30 weeks by “Western Diet” (routine mouse feed +0.15% cholesterol +21% fat) high fat feed (^60cobalt sterilization radiation treatment), with raising conditions being SPF grade, room temperature maintained at 24° C., relative humidity of 50%, and lighting time of 7: 30-19: 30. Animal house was sterilized by ultraviolet lamp once every two days, in order to maintain sterile environment of laminar flow rack (establishment of animal model of atherosclerosis refers to reference: Barish G D, Atkins A R, Downes M, Olson P, Chong L W, Nelson M, Zou Y H, Hwang H S, Kang H J, Curtiss L, Evans R M, Lee C H. PPARδ regulates multiple proinflammatory pathways to suppress atherosclerosis. Proc Natl Acad Sci, 2008, 105 (11): 4271-4276.).
(§2) 5 mice of apo E^−/^− mice raised for 15 weeks were randomly selected and sacrificed, root of aorta of which was taken, and replication condition in AS model was observed by HE staining. The remaining mice were randomly divided into 5 groups as follows (n=15): […]
(§3) Above drugs were firstly solved in DMSO, then suspended in 0.5% carboxymethylcellulose solution, mixed homogeneously, and then were administered via gavage, once a day. Mice were weighted once a week, and ingestion amounts were recorded, and drug doses were adjusted according to weight, interfering for 15 weeks. […]
• blood fat assay: TC, TG, HDL-C, and LDL-C concentrations in serum were determined by applying Olympus Au2700 fully automatic biochemical appearance. • serum inflammatory markers assay: hs-CRP and sCD40L concentrations were determined by applying double antibody sandwich ELISA, in accordance with ELISA kit operating instruction (hs-CRP ELISA kit bought from Herrenberg company, Germany; sCD40L ELISA kit bought from Bender Medsystems company, Austria). • real-time quantitative PCR analysis was carried out on expression of CD36, perilipin, ABCA1, LXRα, MMP-9 and NF-κ B mRNA in apo E^−/^− mouse aorta (a reference method: Zhang Yiguan, Li Xiaohui, Fan Jishan, Zhang Haigang, Li Shuhui, Liao Wenqiang, Pang Yan, Jia Yi. […] 2007, 27 (11): 1601-1607)0 • morphology index image analysis: When slices were HE stained, under X40 fold ordinary light microscope, artery atherosclerosis plaque area of each incisal surface was determined by “Image Pro Plus 5.0” image analysis software. […]

[2] = system: CD36 mRNA; assay: Real-time quantitative PCR of CD36 mRNA in apo E−/− mouse aorta; format: in vivo; conditions: apo E−/− mice, 15 weeks
Procedure: as §1, §2, §3
(§4) • blood fat assay: TC, TG, HDL-C, and LDL-C concentrations in serum were determined by applying Olympus Au2700 fully automatic biochemical appearance. • serum inflammatory markers assay: hs-CRP and sCD40L concentrations were determined by applying double antibody sandwich ELISA, in accordance with ELISA kit operating instruction (hs-CRP ELISA kit bought from Herrenberg company, Germany; sCD40L ELISA kit bought from Bender Medsystems company, Austria). • real-time quantitative PCR analysis was carried out on expression of CD36, perilipin, ABCA1, LXRα, MMP-9 and NF-κ B mRNA in apo E^−/^− mouse aorta (a reference method: Zhang Yiguan, Li Xiaohui, Fan Jishan, Zhang Haigang, Li Shuhui, Liao Wenqiang, Pang Yan, Jia Yi. […] 2007, 27 (11): 1601-1607)0 • morphology index image analysis: When slices were HE stained, under X40 fold ordinary light microscope, artery atherosclerosis plaque area of each incisal surface was determined by “Image Pro Plus 5.0” image analysis software. […] As to Masosn staining, aortic root collagen area (CA) was measured by “Image Pro Plus 5.0” image analysis software, and collagen vessel area ratio (CA/CVA) was calculated. […]

[3] = system: ABCA1 mRNA; assay: Real-time quantitative PCR of ABCA1 mRNA in apo E−/− mouse aorta; format: in vivo; conditions: apo E−/− mice, 15 weeks
Procedure: as §1, §2, §3, §4

[4] = system: NF-κB mRNA; assay: Real-time quantitative PCR of NF-κB mRNA in apo E−/− mouse aorta; format: in vivo; conditions: apo E−/− mice, 15 weeks
Procedure: (§5) A. model group: vehicle; B. ginsenoside compound K low dose group: ginsenoside compound K 12.5 mg/kg/day; C. ginsenoside compound K middle dose group: ginsenoside compound K 25.0 mg/kg/day; D. ginsenoside compound K high dose group: ginsenoside compound K 50.0 mg/kg/day; E. simvastatin control group: simvastatin 10.0 mg/kg/day.
(§6) Above drugs were firstly solved in DMSO, then suspended in 0.5% carboxymethylcellulose solution, mixed homogeneously, and then were administered via gavage, once a day. Mice were weighted once a week, and ingestion amounts were recorded, and drug doses were adjusted according to weight, interfering for 15 weeks. All the animal were sacrificed in 30th week.
Total RNA sample of root of aorta of apo E^−/^− mouse: Total RNA samples of root of aorta in each group mouse were extracted, and utilized for analysis of gene expression of various lipid metabolic factors, inflammatory factors, and nucleic transcription factors associated with AS plaque development.

[5] = system: AS plaque in apo E−/− mouse aorta; assay: Sudan IV staining of aorta, proportion of plaque area in arteria lining endothelium area; format: in vivo; conditions: apo E−/− mice, 15 weeks
Procedure: as §5, §6
Tissues of apo E^−/^− mice were sliced for AS plaque pathology: blood of eye sockets venous plexus of apo E−/− mice was sampled before the mice was sacrificed by cervical dislocation, and aorta was fixed by converse infusion of physiological saline comprising 4% paraformaldehyde into left ventricle, and then whole aorta was cut off from root of aorta to terminal end of abdomen aorta. Root of aorta was taken, and embedded routinely by paraffin, and slices of thickness of 5 μm were continuously cut off from root of aorta, and were subjected separately to HE staining, and MASSON staining, and then were utilized for AS plaque morphological index analysis of aortic valve cross section.
Pathological staining: □sequent 2 pieces of slices were picked up from each incisal surface of sequent paraffin slices of aorta root per mouse, and were separately subjected to HE staining, and MASSON staining, and were observed under light microscope. □remaining aorta was stained by Sudan IV, and was observed under light microscope.

[6] = C-K high dose 50.0 mg/kg/day gavage
[7] = C-K middle dose 25.0 mg/kg/day gavage
[8] = simvastatin 10.0 mg/kg/day gavage

Structure (SMILES)	sCD40L concentration in serum [1, 6]	sCD40L concentration in serum ([1]; C-K low dose 12.5 mg/kg/day gavage, model 6.15 ± 0.21)	sCD40L concentration in serum [1, 7]	expression of CD36 mRNA in aorta (relative concentrations) [2, 6]	expression of CD36 mRNA in aorta (relative concentrations) ([2]; C-K low dose 12.5 mg/kg/day gavage, model 1.12 ± 0.13)	expression of CD36 mRNA in aorta (relative concentrations) [2, 7]	expression of ABCA1 mRNA in aorta (relative concentrations) [3, 6]	expression of ABCA1 mRNA in aorta (relative concentrations) ([3]; C-K low dose 12.5 mg/kg/day gavage, model 0.65 ± 0.18)	expression of ABCA1 mRNA in aorta (relative concentrations) [3, 7]	expression of NF-κB mRNA in aorta (relative concentrations) [4, 6]	expression of NF-κB mRNA in aorta (relative concentrations) ([4]; C-K low dose 12.5 mg/kg/day gavage, model 1.27 ± 0.18)	expression of NF-κB mRNA in aorta (relative concentrations) [4, 7]	plaque area/ arteria lining endothelium area [5, 6]	plaque area/ arteria lining endothelium area ([5]; C-K low dose 12.5 mg/kg/day gavage, model 12.24 ± 0.45)	plaque area/ arteria lining endothelium area [5, 7]	sCD40L concentration in serum [1, 8]	expression of CD36 mRNA in aorta (relative concentrations) [2, 8]	expression of ABCA1 mRNA in aorta (relative concentrations) [3, 8]	expression of NF-κB mRNA in aorta (relative concentrations) [4, 8]	plaque area/ arteria lining endothelium area [5, 8]
CC(C)=CCC[C@](C)(OC1OC(CO)C(O)C(O)C1O)C1CC[C@]2(C)C1[C@H](O)CC1[C@@]3(C)CC[C@H](O)C(C)(C)C3CC[C@]12C (stereo partly drawn) [C-K, 20-O-β-D-glucopyranosyl 20-(S)-protopanaxadiol]	5.19 ± 0.19^a ng/mL	5.51 ± 0.35^a ng/mL	5.34 ± 0.32^a ng/mL	0.31 ± 0.08^b	0.54 ± 0.07^b	0.47 ± 0.08^b	1.34 ± 0.13^b	1.08 ± 0.15^b	1.19 ± 0.18^b	0.69 ± 0.16^b	0.90 ± 0.19^b	0.78 ± 0.23^b	6.73 ± 0.65^b %	9.28 ± 0.39^b %	9.54 ± 0.21^b %	–	–	–	–	–
CCC(C)(C)C(=O)O[C@H]1C[C@@H](C)C=C2C=C[C@H](C)[C@H](CC[C@@H]3C[C@@H](O)CC(=O)O3)[C@H]21 [simvastatin, reference compound]	–	–	–	–	–	–	–	–	–	–	–	–	–	–	–	4.59 ± 0.37^b ng/mL	0.77 ± 0.11^a	0.78 ± 0.12^a	0.89 ± 0.16^b	6.31 ± 0.19^b %

Reference: patent US20110212909A1, “Use of Ginsenoside Compound K in the Preparation of a Medicament for the Prevention and Treatment of Atherosclerosis” (priority 2008, published 2011)
